Consider 3 compounds from PMC6812009, “Covalent Aurora A regulation by the metabolic integrator coenzyme A” (Redox Biology, 2019).

Common to all, as to assay: Kinase profiling screen (radioactive filter-binding assay)
Common to all, as to assay type: biochemical

The target of one assay is T1, BRSK1 (Homo sapiens, UniProt Q8TDC3).
T1 sequence (Q8TDC3 1-778): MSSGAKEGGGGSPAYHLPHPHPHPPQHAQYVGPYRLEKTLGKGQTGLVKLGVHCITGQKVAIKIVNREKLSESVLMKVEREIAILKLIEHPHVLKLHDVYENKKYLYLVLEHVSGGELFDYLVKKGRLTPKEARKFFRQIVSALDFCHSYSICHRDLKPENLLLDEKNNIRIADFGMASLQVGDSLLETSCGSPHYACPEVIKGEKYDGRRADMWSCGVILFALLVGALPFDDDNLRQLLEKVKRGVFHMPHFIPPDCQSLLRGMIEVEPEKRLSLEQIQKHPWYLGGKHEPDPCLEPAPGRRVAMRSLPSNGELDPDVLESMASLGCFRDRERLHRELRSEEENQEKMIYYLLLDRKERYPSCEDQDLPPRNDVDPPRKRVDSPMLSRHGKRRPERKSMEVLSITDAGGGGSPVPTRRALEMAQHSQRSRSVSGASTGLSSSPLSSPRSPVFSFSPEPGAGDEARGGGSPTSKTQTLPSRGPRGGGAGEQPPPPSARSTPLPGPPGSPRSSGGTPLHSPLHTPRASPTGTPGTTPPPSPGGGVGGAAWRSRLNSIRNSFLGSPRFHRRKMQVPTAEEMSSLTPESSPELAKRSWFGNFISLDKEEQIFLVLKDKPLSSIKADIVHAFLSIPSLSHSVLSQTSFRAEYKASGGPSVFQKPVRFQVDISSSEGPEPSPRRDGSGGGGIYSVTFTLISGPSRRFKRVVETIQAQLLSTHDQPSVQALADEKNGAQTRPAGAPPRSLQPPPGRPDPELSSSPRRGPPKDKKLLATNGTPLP
To be noted: 100 μM compound, 20 μM ATP; read-out: Kinase activity, % of activity in the absence of inhibitor. The protocol:
(§1) Profiling of 117 protein kinases with CoA, dpCoA and ADP was carried out at the International Centre for Protein Kinase Profiling at the University of Dundee. Each compound was tested in vitro, in duplicate, at 100 μM final concentration using recombinant kinases, model substrates and optimal concentrations of ATP. Bacterially expressed full-length His-Aurora A was used to determine the IC50 value for CoA (in the presence or absence of DTT), dpCoA, ADP and desulfo-CoA. The assay was performed in the presence of 5 μM competing ATP. To examine whether the inhibitory effect of CoA on Aurora A is modulated by TPX2, IC50 values for CoA were also generated in the presence and absence of 1 μg TPX2 (residues 1–43) fragment.

The target in the next assay is EPH-A2 (Homo sapiens, UniProt P29317). To be noted: 100 μM compound, 50 μM ATP; read-out: Kinase activity, % of activity in the absence of inhibitor. Here is the method: as §1
Sequence of EPH-A2 (P29317 24-976): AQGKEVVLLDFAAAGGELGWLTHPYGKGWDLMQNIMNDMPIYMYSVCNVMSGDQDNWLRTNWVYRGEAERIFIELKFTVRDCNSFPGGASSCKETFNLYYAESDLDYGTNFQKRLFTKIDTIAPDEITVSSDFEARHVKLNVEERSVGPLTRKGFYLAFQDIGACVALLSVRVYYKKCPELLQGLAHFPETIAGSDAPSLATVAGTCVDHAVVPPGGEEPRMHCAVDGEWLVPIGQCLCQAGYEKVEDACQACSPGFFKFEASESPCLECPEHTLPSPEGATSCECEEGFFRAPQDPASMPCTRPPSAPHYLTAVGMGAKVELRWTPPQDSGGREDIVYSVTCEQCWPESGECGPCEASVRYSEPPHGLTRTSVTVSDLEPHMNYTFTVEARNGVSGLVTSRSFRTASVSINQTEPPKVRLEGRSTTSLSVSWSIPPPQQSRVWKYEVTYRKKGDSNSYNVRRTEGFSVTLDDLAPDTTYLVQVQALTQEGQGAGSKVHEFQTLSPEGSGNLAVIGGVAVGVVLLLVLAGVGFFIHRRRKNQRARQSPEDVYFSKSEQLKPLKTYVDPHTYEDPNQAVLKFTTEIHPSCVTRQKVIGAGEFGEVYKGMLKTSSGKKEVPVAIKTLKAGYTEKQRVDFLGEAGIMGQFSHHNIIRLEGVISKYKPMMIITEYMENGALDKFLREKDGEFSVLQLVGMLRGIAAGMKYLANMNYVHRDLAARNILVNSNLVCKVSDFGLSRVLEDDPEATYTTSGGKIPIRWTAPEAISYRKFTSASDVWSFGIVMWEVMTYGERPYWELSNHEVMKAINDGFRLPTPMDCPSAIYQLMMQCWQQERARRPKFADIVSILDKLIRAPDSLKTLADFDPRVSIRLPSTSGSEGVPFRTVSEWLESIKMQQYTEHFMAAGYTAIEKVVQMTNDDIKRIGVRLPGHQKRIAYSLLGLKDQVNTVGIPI
Another assay has as its target JNK3 (Homo sapiens, UniProt P53779). The note with it: 100 μM compound, 20 μM ATP; read-out: Kinase activity, % of activity in the absence of inhibitor. Here is the method: as §1
A further assay concerns the target MEKK1 (Homo sapiens, UniProt Q13233). The note with it: 100 μM compound, 20 μM ATP; read-out: Kinase activity, % of activity in the absence of inhibitor. Here is the method: as §1
A further assay has as its target MST4 (Homo sapiens, UniProt Q9P289). The note with it: 100 μM compound, 20 μM ATP; read-out: Kinase activity, % of activity in the absence of inhibitor. The protocol:
as §1

The next assay has as its target T2, NUAK1 (Homo sapiens, UniProt O60285).
T2 sequence (O60285 1-661): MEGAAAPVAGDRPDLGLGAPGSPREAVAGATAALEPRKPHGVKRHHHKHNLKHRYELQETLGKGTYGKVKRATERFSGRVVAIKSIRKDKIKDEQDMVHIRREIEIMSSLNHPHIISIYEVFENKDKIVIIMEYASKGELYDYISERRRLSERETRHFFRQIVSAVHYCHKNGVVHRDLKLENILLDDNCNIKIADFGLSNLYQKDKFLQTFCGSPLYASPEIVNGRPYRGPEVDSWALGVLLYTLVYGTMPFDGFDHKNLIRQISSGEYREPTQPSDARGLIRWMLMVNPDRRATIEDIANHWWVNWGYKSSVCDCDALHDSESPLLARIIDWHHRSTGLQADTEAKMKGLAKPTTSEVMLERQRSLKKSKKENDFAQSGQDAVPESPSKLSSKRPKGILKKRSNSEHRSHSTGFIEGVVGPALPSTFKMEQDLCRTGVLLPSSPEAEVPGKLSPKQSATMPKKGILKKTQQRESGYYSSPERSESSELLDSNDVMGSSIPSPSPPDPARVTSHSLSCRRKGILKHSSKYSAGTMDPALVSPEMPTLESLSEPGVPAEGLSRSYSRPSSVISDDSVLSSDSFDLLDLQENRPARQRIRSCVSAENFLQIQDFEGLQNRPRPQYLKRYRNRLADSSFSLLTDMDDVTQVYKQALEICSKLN
The note with it: 100 μM compound, 20 μM ATP; read-out: Kinase activity, % of activity in the absence of inhibitor. Here is the method: as §1

The target in the next assay is PIM3 (Homo sapiens, UniProt Q86V86). To be noted: 100 μM compound, 20 μM ATP; read-out: Kinase activity, % of activity in the absence of inhibitor. The protocol:
as §1

For a further assay, the target named is PKCβ (Homo sapiens, UniProt P05771). To be noted: 100 μM compound, 50 μM ATP; read-out: Kinase activity, % of activity in the absence of inhibitor. The protocol: as §1
Sequence of PKCβ (P05771 whole entry): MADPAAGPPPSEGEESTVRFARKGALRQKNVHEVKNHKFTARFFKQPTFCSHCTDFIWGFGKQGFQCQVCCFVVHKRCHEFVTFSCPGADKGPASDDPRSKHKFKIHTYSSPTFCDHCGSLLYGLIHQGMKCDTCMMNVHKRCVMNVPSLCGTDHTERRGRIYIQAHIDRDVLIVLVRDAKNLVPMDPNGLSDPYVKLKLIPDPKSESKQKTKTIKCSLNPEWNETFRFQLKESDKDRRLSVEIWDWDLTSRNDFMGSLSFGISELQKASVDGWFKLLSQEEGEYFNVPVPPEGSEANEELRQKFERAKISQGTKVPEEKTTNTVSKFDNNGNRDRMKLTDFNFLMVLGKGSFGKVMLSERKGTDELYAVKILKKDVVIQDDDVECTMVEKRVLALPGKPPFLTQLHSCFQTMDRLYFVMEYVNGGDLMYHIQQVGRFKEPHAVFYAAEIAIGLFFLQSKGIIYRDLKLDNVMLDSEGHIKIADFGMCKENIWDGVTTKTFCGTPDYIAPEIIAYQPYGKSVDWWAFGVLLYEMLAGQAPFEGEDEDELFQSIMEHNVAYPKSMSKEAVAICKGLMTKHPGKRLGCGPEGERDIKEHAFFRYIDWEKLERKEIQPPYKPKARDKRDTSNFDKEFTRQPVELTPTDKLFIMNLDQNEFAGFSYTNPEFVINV
A further assay addresses PRK2 (Homo sapiens, UniProt Q16513). To be noted: 100 μM compound, 5 μM ATP; read-out: Kinase activity, % of activity in the absence of inhibitor. The protocol: as §1
The target in a further assay is SmMLCK (Homo sapiens, UniProt Q15746). The note with it: 100 μM compound, 20 μM ATP; read-out: Kinase activity, % of activity in the absence of inhibitor. Here is the method:
as §1

The next assay concerns the target Src (Homo sapiens, UniProt P12931). To be noted: for activity at 100 µM: 100 μM compound, 50 μM ATP, read-out: Kinase activity, % of activity in the absence of inhibitor. Here is the method:
as §1

SMILES strings stand for the structures.

Sequence of SmMLCK (Q15746 923-1914): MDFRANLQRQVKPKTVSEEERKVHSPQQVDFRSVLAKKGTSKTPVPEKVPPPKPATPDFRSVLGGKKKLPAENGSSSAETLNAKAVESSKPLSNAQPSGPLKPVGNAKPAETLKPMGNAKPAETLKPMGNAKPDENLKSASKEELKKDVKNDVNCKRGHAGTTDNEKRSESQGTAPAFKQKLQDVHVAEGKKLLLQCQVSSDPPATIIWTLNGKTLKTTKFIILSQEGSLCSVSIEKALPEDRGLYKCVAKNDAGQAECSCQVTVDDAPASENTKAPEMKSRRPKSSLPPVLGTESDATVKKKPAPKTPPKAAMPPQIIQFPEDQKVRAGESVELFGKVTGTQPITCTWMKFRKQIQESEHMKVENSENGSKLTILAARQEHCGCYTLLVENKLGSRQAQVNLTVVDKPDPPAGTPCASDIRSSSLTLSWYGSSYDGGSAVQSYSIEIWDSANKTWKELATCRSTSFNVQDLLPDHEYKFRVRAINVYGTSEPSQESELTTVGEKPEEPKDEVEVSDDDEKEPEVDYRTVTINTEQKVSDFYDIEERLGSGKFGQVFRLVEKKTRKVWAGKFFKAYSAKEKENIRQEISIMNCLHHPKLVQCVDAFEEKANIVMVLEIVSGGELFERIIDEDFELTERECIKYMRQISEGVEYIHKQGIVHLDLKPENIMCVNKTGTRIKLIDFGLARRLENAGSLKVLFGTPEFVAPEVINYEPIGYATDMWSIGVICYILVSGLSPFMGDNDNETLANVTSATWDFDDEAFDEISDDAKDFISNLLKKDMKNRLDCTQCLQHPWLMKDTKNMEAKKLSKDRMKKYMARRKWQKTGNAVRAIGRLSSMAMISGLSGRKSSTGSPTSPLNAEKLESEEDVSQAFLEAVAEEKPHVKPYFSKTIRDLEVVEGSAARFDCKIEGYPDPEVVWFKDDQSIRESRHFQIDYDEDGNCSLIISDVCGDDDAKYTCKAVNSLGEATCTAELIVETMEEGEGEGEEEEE
Sequence of MST4 (Q9P289 whole entry): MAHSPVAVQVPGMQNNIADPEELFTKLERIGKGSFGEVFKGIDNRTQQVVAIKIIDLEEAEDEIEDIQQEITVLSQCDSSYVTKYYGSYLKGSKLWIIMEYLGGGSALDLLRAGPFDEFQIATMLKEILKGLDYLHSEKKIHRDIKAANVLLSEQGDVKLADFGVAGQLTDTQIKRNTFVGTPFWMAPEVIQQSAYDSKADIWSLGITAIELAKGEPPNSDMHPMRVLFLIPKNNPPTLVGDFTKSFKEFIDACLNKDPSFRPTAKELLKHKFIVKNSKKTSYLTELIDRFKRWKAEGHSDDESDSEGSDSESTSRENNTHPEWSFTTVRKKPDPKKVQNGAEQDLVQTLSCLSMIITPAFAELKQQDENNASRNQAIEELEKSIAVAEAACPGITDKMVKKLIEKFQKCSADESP
Sequence of JNK3 (P53779 whole entry): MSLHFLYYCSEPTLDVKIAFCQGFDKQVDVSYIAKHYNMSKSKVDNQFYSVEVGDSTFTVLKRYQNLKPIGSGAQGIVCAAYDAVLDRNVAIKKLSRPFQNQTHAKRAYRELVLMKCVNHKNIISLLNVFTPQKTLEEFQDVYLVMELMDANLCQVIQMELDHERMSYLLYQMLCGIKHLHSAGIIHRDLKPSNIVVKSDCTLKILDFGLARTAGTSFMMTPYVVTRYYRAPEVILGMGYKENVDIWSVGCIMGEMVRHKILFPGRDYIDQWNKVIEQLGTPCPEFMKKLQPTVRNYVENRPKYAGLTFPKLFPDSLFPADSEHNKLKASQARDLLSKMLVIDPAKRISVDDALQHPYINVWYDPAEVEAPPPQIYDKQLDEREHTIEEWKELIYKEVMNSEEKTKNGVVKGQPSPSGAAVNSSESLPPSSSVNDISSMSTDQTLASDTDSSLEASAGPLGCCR
Sequence of Src (P12931 whole entry): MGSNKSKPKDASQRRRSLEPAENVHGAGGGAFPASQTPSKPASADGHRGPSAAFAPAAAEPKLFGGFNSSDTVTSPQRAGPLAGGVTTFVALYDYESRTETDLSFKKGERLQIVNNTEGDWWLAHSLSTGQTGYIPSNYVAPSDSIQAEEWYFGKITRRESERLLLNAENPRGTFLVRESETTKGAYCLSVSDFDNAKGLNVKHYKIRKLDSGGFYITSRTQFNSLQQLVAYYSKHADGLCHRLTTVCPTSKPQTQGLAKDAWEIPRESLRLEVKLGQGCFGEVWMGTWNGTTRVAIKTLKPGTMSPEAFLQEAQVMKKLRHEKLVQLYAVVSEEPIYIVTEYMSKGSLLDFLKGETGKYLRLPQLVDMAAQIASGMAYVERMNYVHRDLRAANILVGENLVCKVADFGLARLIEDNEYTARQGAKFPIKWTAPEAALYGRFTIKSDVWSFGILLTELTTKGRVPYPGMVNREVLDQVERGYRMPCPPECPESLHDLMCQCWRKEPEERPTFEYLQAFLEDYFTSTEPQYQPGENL

On to `Nc1ncnc2c1ncn2C1OC(COP(=O)(O)OP(=O)(O)O)C(O)C1O` (centres unmarked) [ADP], for which the activity at 100 µM at BRSK1 came out at 42.8%; at EPH-A2, 45%; on JNK3 it was 58.6%; at MEKK1 it was 68.1%; at MST4, 56.9%; on NUAK1 it was 32.4%. Besides, the activity at 100 µM on PIM3 was found to be 36.1%; at PKCβ it was 79.2%; at PRK2, 20.8%; on SmMLCK it was 73%; at Src, 31.8%.

For orientation: inhibition means the change of the read-out against control, counted positive when it falls. In the case of `CC(C)(COP(=O)(O)OP(=O)(O)OC[C@H]1O[C@@H](n2cnc3c(N)ncnc32)[C@H](O)[C@@H]1OP(=O)(O)O)[C@@H](O)C(=O)NCCC(=O)NCCS` [CoA, Coenzyme A], the activity at 100 µM was 110% on BRSK1; 102% at EPH-A2; 101% at JNK3; 96.3% on MEKK1; 107% at MST4; 98.3% at NUAK1. In addition, the activity at 100 µM at PIM3 is 122%; on PKCβ it was 118%; on PRK2, 71.3%; on SmMLCK it was 92.1%; on Src, 43.8%. On Src (100 μM CoA, kinase profiling screen), the inhibition at 100 µM is no more than 50%. Besides, the “SRC inhibition (in words)” value at Src (kinase profiling, 100 μM) was “modestly inhibited”.

With `CC(C)(COP(=O)(O)OP(=O)(O)OCC1OC(n2cnc3c(N)ncnc32)C(O)C1O)C(O)C(=O)NCCC(=O)NCCS` (centres unmarked) [dpCoA, dephospho-CoA], the activity at 100 µM at BRSK1 came out at 96.4%; at EPH-A2, 99.2%; on JNK3, 63.2%; on MEKK1, 106%; on MST4 it was 89.7%; at NUAK1, 68.3%. The activity at 100 µM on PIM3 was determined as 96.7%; at PKCβ, 105%; at PRK2, 67.5%; on SmMLCK, 91.3%; on Src, 8.9%.
